This is an account of results in patent publication US20250145665A1, “MACROCYCLIC PEPTIDES USEFUL AS MODULATORS OF TNF ALPHA” (Bristol-Myers Squibb Company, priority 2023, published 2025).

pIC50: −log10 of the molar value. Positions of bridges follow the written chain, without caps; N, C: chain ends. Non-standard residues stand in square brackets, D forms with d. Residues, ends and D or L forms follow the SMILES beside them. Bip(4'-COOH) = N[C@@H](Cc1ccc(-c2ccc(C(=O)O)cc2)cc1)C(=O)O; Bip(4'-NHAc) = CC(=O)Nc1ccc(-c2ccc(C[C@H](N)C(=O)O)cc2)cc1; Ala(morpholin-4-yl) = N[C@@H](CN1CCOCC1)C(=O)O; Bip = N[C@@H](Cc1ccc(-c2ccccc2)cc1)C(=O)O; Val(3-OH) = CC(C)(O)[C@H](N)C(=O)O; h4Pal = N[C@@H](CCc1ccncc1)C(=O)O; 2Pal = N[C@@H](Cc1ccccn1)C(=O)O; Cha = N[C@@H](CC1CCCCC1)C(=O)O; Aze = O=C(O)[C@@H]1CCN1; Sar = CNCC(=O)O

The experiment deals with TNFα (Homo sapiens, UniProt P01375). As to the kind of experiment: TNF-Induced HEK-Blue Assay. The experiment is classed as cell-based. The following applies: HEK-Blue-CD40L cells, NF-kB-driven secreted alkaline phosphatase reporter; TNFα 0.5 ng/ml; 18 h; read-out: TNF induced HEK-Blue assay IC50 value.
Sequence of TNFα (P01375 77-233 limits assumed): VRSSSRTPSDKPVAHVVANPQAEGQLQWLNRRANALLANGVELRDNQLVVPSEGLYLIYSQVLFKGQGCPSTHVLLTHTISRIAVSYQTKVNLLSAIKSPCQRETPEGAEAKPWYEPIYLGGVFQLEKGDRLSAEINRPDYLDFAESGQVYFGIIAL
Description: TNFα (final concentration 0.5 ng/ml) or CD40L (final concentration 30 ng/ml) in assay buffer [DMEM, 4.5 g/l glucose (Gibco, Cat. 21063-029), 10% FBS (Sigma, F4135), 1% Penicillin-Streptomycin (Gibco, Cat. 15140-122), 1% Anti-Anti (Gibco, Cat. 15240-112) and 2 mM L-glutamine (Gibco, Cat. 25030-081)] was then added to the assay plate. After a 30 minute pre-incubation at 37° C. and 5% CO2, HEK-Blue™-CD40L cells (INVIVOGEN, Cat. Code hkb-cd40) containing a NF-kB-driven secreted alkaline phosphatase reporter gene were seeded into the assay plate at a density of 20,000 cells per well. This plate was then incubated for 18 h at 37° C. and 5% CO2. Secreted alkaline phosphatase expression was measured using QUANTI-Blue™ (INVIVOGEN, Cat. Code rep-qb1) according to manufacturer's specifications and the assay plate was read on a PerkinElmer Envision at 620 nm.
IC50 values were determined after correcting for background [(sample read-mean of low control)/(mean of high control-mean of low control)] where by the low control is DMSO without stimulation and high control is DMSO with stimulation.
As usually defined, the pIC50 is −log10 of the IC50, conventionally taken in molar units. For the compound `CC(C)C[C@@H]1NC(=O)[C@H](Cc2ccc(O)cc2)NC(=O)[C@H](C(C)C)NC(=O)[C@@H]2CCCN2C(=O)[C@H](C(C)C)NC(=O)[C@@H](CCCNC(=N)N)NC(=O)[C@H](CC(=O)O)NC(=O)[C@H](Cc2ccc(O)cc2)NC(=O)CN(C)C(=O)[C@H](Cc2ccc(-c3ccccc3)cc2)NC(=O)[C@H](Cc2ccc(-c3ccc(C(=O)O)cc3)cc2)NC(=O)[C@H](CCc2ccncc2)NC(=O)CSC[C@@H](C(=O)NCC(N)=O)NC1=O` [Example 186] ({CH2CO}-[h4Pal][Bip(4'-COOH)][Bip][Sar]YD[dR]VPVYLCG-NH2; thioether N-13), the pIC50 was 6.70 to 7.30.

As for `CC(C)C[C@@H]1NC(=O)[C@H](Cc2ccc(O)cc2)NC(=O)[C@H](C(C)C)NC(=O)[C@@H]2CCCN2C(=O)[C@H](C(C)C)NC(=O)[C@@H](CCCNC(=N)N)NC(=O)[C@H](CC(=O)O)NC(=O)[C@H](Cc2ccc(O)cc2)NC(=O)CN(C)C(=O)[C@H](Cc2ccc(-c3ccccc3)cc2)NC(=O)[C@H](Cc2ccc(-c3ccc(C(=O)O)cc3)cc2)NC(=O)[C@H](CC2CCCCC2)NC(=O)CSC[C@@H](C(=O)NCC(N)=O)NC1=O` [Example 187] ({CH2CO}-[Cha][Bip(4'-COOH)][Bip][Sar]YD[dR]VPVYLCG-NH2; thioether N-13), the pIC50 was 6.70 to 7.30.

On to `CC[C@H](C)[C@@H]1NC(=O)CSC[C@@H](C(=O)NCC(N)=O)NC(=O)[C@H](CC(C)C)NC(=O)[C@H](Cc2ccc(O)cc2)NC(=O)[C@H](C(C)C)NC(=O)[C@@H]2CCCN2C(=O)[C@H](C(C)C)NC(=O)[C@@H](CCCNC(=N)N)NC(=O)[C@H](CC(=O)O)NC(=O)[C@H](Cc2ccc(O)cc2)NC(=O)CN(C)C(=O)[C@H](Cc2ccc(-c3ccccc3)cc2)NC(=O)[C@H](Cc2ccc(-c3ccc(C(=O)O)cc3)cc2)NC1=O` [Example 188] ({CH2CO}-I[Bip(4'-COOH)][Bip][Sar]YD[dR]VPVYLCG-NH2; thioether N-13), for which the pIC50 was greater than 7.30.

As to `CC(C)C[C@@H]1NC(=O)[C@H](Cc2ccc(O)cc2)NC(=O)[C@H](C(C)C)NC(=O)[C@@H]2CCCN2C(=O)[C@H](C(C)C)NC(=O)[C@@H](CCCNC(=N)N)NC(=O)[C@H](CC(=O)O)NC(=O)[C@H](Cc2ccc(O)cc2)NC(=O)CN(C)C(=O)[C@H](Cc2ccc(-c3ccccc3)cc2)NC(=O)[C@H](Cc2ccc(-c3ccc(C(=O)O)cc3)cc2)NC(=O)[C@H](Cc2c[nH]c3ccccc23)NC(=O)CSC[C@@H](C(=O)NCC(N)=O)NC1=O` [Example 189] ({CH2CO}-W[Bip(4'-COOH)][Bip][Sar]YD[dR]VPVYLCG-NH2; thioether N-13), the negative logarithm of the IC50 (pIC50) is 5.70 to 6.70.

As to `CC(=O)Nc1ccc(-c2ccc(C[C@@H]3NC(=O)[C@H](Cc4ccc(-c5ccc(C(=O)O)cc5)cc4)NC(=O)[C@H](CN4CCOCC4)NC(=O)CSC[C@@H](C(=O)NCC(N)=O)NC(=O)[C@H](CC(C)C)NC(=O)[C@H](Cc4ccccn4)NC(=O)[C@H](C(C)C)NC(=O)[C@@H]4CCN4C(=O)[C@H](C(C)C)NC(=O)[C@@H](CCCNC(=N)N)NC(=O)[C@H](CC(=O)O)NC(=O)[C@H](Cc4ccccn4)NC(=O)CN(C)C3=O)cc2)cc1` [Example 190] ({CH2CO}-[Ala(morpholin-4-yl)][Bip(4'-COOH)][Bip(4'-NHAc)][Sar][2Pal]D[dR]V[Aze]V[2Pal]LCG-NH2; thioether N-13), the negative logarithm of the IC50 (pIC50) was 6.70 to 7.30.

Regarding `CC(=O)Nc1ccc(-c2ccc(C[C@@H]3NC(=O)[C@H](Cc4ccc(-c5ccc(C(=O)O)cc5)cc4)NC(=O)[C@H](CN4CCOCC4)NC(=O)CSC[C@@H](C(=O)NCC(N)=O)NC(=O)[C@H](CC(C)C)NC(=O)[C@H](CCCNC(=N)N)NC(=O)[C@H](C(C)C)NC(=O)[C@@H]4CCCN4C(=O)[C@H](C(C)C)NC(=O)[C@H](CCCNC(=N)N)NC(=O)[C@H](CC(=O)O)NC(=O)[C@H](Cc4ccc(O)cc4)NC(=O)CN(C)C3=O)cc2)cc1` [Example 191] ({CH2CO}-[Ala(morpholin-4-yl)][Bip(4'-COOH)][Bip(4'-NHAc)][Sar]YDRVPVRLCG-NH2; thioether N-13), the pIC50 was 6.70 to 7.30.

For `CC(=O)Nc1ccc(-c2ccc(C[C@@H]3NC(=O)[C@H](Cc4ccc(-c5ccccc5)cc4)NC(=O)[C@H](CN4CCOCC4)NC(=O)CSC[C@@H](C(=O)NCC(N)=O)NC(=O)[C@H](CC(C)C)NC(=O)[C@H](CCCNC(=N)N)NC(=O)[C@H](C(C)C)NC(=O)[C@@H]4CCCN4C(=O)[C@H](C(C)C)NC(=O)[C@H](CCCNC(=N)N)NC(=O)[C@H](CC(=O)O)NC(=O)[C@H](Cc4ccc(O)cc4)NC(=O)CNC3=O)cc2)cc1` [Example 192] ({CH2CO}-[Ala(morpholin-4-yl)][Bip][Bip(4'-NHAc)]GYDRVPVRLCG-NH2; thioether N-13), the pIC50 is 6.70 to 7.30.

In the case of `CC(=O)Nc1ccc(-c2ccc(C[C@@H]3NC(=O)[C@H](Cc4ccc(-c5ccccc5)cc4)NC(=O)[C@H](C(C)(C)O)NC(=O)CSC[C@@H](C(=O)NCC(N)=O)NC(=O)[C@H](CC(C)C)NC(=O)[C@H](CCCNC(=N)N)NC(=O)[C@H](C(C)C)NC(=O)[C@@H]4CCCN4C(=O)[C@H](C(C)C)NC(=O)[C@H](CCCNC(=N)N)NC(=O)[C@H](CC(=O)O)NC(=O)[C@H](Cc4ccc(O)cc4)NC(=O)CN(C)C3=O)cc2)cc1` [Example 193] ({CH2CO}-[Val(3-OH)][Bip][Bip(4'-NHAc)][Sar]YDRVPVRLCG-NH2; thioether N-13), the pIC50 was 6.70 to 7.30.

As to `CC(=O)Nc1ccc(-c2ccc(C[C@@H]3NC(=O)[C@H](Cc4ccc(-c5ccccc5)cc4)NC(=O)[C@H](C(C)(C)O)NC(=O)CSC[C@@H](C(=O)NCC(N)=O)NC(=O)[C@H](CC(C)C)NC(=O)[C@H](Cc4ccc(O)cc4)NC(=O)[C@H](C(C)C)NC(=O)[C@@H]4CCCN4C(=O)[C@H](C(C)C)NC(=O)[C@H](CCCNC(=N)N)NC(=O)[C@H](CC(=O)O)NC(=O)[C@@H]4CCCN4C(=O)CN(C)C3=O)cc2)cc1` [Example 194] ({CH2CO}-[Val(3-OH)][Bip][Bip(4'-NHAc)][Sar]PDRVPVYLCG-NH2; thioether N-13), the pIC50 is 6.70 to 7.30.

With `CC(=O)Nc1ccc(-c2ccc(C[C@@H]3NC(=O)[C@H](Cc4ccc(-c5ccccc5)cc4)NC(=O)[C@H](CN4CCOCC4)NC(=O)CSC[C@@H](C(=O)NCC(N)=O)NC(=O)[C@H](CC(C)C)NC(=O)[C@H](CCCNC(=N)N)NC(=O)[C@H](C(C)C)NC(=O)[C@@H]4CCCN4C(=O)[C@H](C(C)C)NC(=O)[C@@H](CCCNC(=N)N)NC(=O)[C@H](CC(=O)O)NC(=O)[C@H](Cc4ccc(O)cc4)NC(=O)CN(C)C3=O)cc2)cc1` [Example 195] ({CH2CO}-[Ala(morpholin-4-yl)][Bip][Bip(4'-NHAc)][Sar]YD[dR]VPVRLCG-NH2; thioether N-13), the pIC50 is greater than 7.30.

In the case of `CC(=O)Nc1ccc(-c2ccc(C[C@@H]3NC(=O)[C@H](Cc4ccc(-c5ccccc5)cc4)NC(=O)[C@H](CN4CCOCC4)NC(=O)CSC[C@@H](C(=O)NCC(N)=O)NC(=O)[C@H](CC(C)C)NC(=O)[C@H](Cc4ccc(O)cc4)NC(=O)[C@H](C(C)C)NC(=O)[C@@H]4CCCN4C(=O)[C@H](C(C)C)NC(=O)[C@H](CCCNC(=N)N)NC(=O)[C@H](CC(=O)O)NC(=O)[C@@H]4CCCN4C(=O)CN(C)C3=O)cc2)cc1` [Example 196] ({CH2CO}-[Ala(morpholin-4-yl)][Bip][Bip(4'-NHAc)][Sar]PDRVPVYLCG-NH2; thioether N-13), the pIC50 is greater than 7.30.
